Experimental data as given in publication PMC11788822, “Uncovering the potent antimicrobial activity of squaramide based anionophores – chloride transport and membrane disruption” (Chemical Science, 2025).

Experiments:
[1] = set-up: method as in doi:10.1021/jo01097a026; settings: for the relevant substitution pattern; cited from earlier work
[2] = test system: panel of Gram-positive and -negative pathogens; experiment: Zone of inhibition assay; format: cell-based; settings: 5 μL of 1 mM stock on nutrient agar, 37 °C, 24 h; radius ≤ 2 mm deemed not active
Experimental: To do this, a zone of inhibition assay was used as a qualitative measure of activity. To do so, 5 μL of a 1 mM stock of the respective compound was pipetted atop nutrient agar which was previously spread with a panel of Gram-positive and -negative pathogens of interest. Following incubation at 37 °C for 24 h, zones of inhibition were measured and recorded for each compound. Zones with a radius ≤ 2 mm were deemed as not active, and thus eliminated from further study.

[3] = test system: S. aureus; experiment: DNA release luminescence assay with Ru(phen)2(dppz)Cl2; format: cell-based, Staphylococcus aureus; settings: 100 μM, 1 h, vs untreated control
Experimental: In addition to assays monitoring the uptake of PI, luminescence assays to monitor the release of cellular components such as DNA/RNA were also undertaken. Using Ru(phen)2(dppz)Cl2, which acts as a highly sensitive, “off-to-on” emissive probe for nucleic acids (NA),[49–51] we assessed the levels of NA release from cells upon treatment with 1, 2, and 4 (100 μM) by comparing emission intensity of the complex in the absence of nucleic acids, to untreated controls, and treated samples (Fig. 4C). When Ru(phen)2(dppz)Cl2 was added to sterile nutrient broth, which lacks nucleic acids, emission from the ^3MLCT band (ca. 620 nm) is highly quenched, however, when added to culture supernatant in the absence of treatment with 1, 2, or 4 we see a large increase in ^3MLCT derived luminescence indicating the presence of nucleic acids in the solution. This initial luminescence increase is unsurprising, as S. aureus is known to release DNA under active growth conditions, in the form of eDNA,[52] which acts as a chemical messenger for microbial species.[53] […] This additional increase in luminescence indicates a heightened level of extracellular NA and may be another indication of membrane disruption. […] Indeed, a significant increase in luminescence would not be expected, as the release of large architectures such as those observed for nucleic acids is slow, due to the bulk of the biomolecules.
1 mL aliquots of S. aureus cultures brought to early stationary phase overnight were brought to an OD600 = 0.2 and 100 µL of this suspension was added to 96 well plates, whereafter 100 µL of PBS containing; no compound (- control), or compound (2x desired concentration) was added to the suspension. The resultant mixture was incubated at 37 °C for 2 hr whereafter fluorescence intensity from PI (DNA bound form) was quanitified (λ exc/em = 535/615 nm) using a Clariostar plate reader. In the case of time course experiments, Measurement cycles were set for two hours, following addition of the respective compound (T0). Fluorescence was subsequently plotted as F/F0.
DNA release luminescence assay […]

[4] = test system: S. aureus; experiment: Modified MTT assay of cellular respiration; format: cell-based, Staphylococcus aureus; settings: HBSS, Cl− free HBSS or Na+ free HBSS buffer, 5 h treatment
From the text: To further probe the relationship between anion homeostasis and antimicrobial effect, a modified MTT assay was used next to monitor disruption of cellular respiration in the presence of 1, 2, or 4 either with abundant Cl^− and Na^+, in the absence of Cl^−, or in the absence of Na^+ (Fig. 3). […] Chew and co-workers have reported on the behaviours, and dynamics of adamantylamines in the lipid bilayers, and discussed that adamantylamines show a preferential accumulation in the interfacial layer of lipid bilayers[46] and thus we suspected that these compounds, with an identical pharmacophore may behave in a similar manner accumulating in lipid bilayers of bacterial membranes.[47,48] […]
or measured over the course of 2 hrs, starting at T0 (upon addition of compound).
Alternatively, 200 µL aliquots of cell suspension were added to a 96-well plate, to the desired quantity, and were either untreated (control), or treated with the compound of interest for 5 mins, whereafter fluorescence was read using a BMG Labtech Clariostar Plus platereader, and plotted relative to control.
From an overnight culture of S. aureus brought to stationary phase (OD600 = ~1.0), was taken samples which were diluted to an OD600 = ~0.2 in either Hank’s buffered salt solution, Cl- free HBSS buffer, or Na+ free buffer. Samples were treated with the respective compound for 5 h at 37 0C. Subsequently, Cell densities for each of the samples were standardised to an OD600 = 0.15, in the relevant buffer system. To each sample was added Triphenyl Tetrazolium Chloride (TTC), to a final concentration of 0.5 mg/mL. 100 µL of each sample was placed into the wells of a 96-well place in 8 replicates. Samples were incubated at 37 0C for 18 h, and subsequently supernatant was removed from each well, taking care as to not disturb the Formazan precipitate. To each well was then added 100 µL DMSO, with repeated pipetting to solubilise precipitate. Samples were read using a microplate reader at 550 nm & plotted as percentage cell viability relative to control. […]

| SMILES | Hammett parameter (σ) [1] | zone of inhibition, qualitative measure of activity [2] | Ru(phen)2(dppz)Cl2 luminescence in culture supernatant (nucleic acid release) [3] | effect on cellular respiration (MTT) [4] |
| --- | --- | --- | --- | --- |
| O=c1c(Nc2ccc([N+](=O)[O-])cc2)c(NC23CC4CC(CC(C4)C2)C3)c1=O [Compound 4] | 0.78 | promising bioactivity | further increased | concentration dependent decrease in cellular respiration |
| O=c1c(Nc2ccc(Cl)c(Cl)c2)c(NC23CC4CC(CC(C4)C2)C3)c1=O [Compound 2] | 0.6 | promising bioactivity | further increased | concentration dependent decrease in cellular respiration |
| O=c1c(Nc2cc(C(F)(F)F)cc(C(F)(F)F)c2)c(NC23CC4CC(CC(C4)C2)C3)c1=O [Compound 1] | 0.86 | promising bioactivity | further increased | concentration dependent decrease in cellular respiration |
